Patent publication US9839642B2, “Beta-tetrazolyl-propionic acids as metallo-beta-lactamase inhibitors” (priority 2014, dated 2017)

Legend:
VIM-1 = VIM-1 (Pseudomonas aeruginosa, UniProt A0A0F7KYQ8); assay: Enzyme activity: determination of IC50, fluorescence assay with CCF2-FA substrate; type: biochemical; settings: VIM-1 enzyme 30 pM, CCF2-FA 1.25 μM, 2 hours at 25° C.; read-out: VIM1 IC50
Summary of the method: (§1)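 Final enzyme levels differed by target: 1 pM NDM-1, 2 pM IMP-1, 30 pM VIM-1. Each was incubated 2 hours at 25° C with test compound and 1.25 μM CCF2-FA, and 460 nm fluorescence (405 nm excitation) was fitted by 4-parameter curve to obtain IC50.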

IMP-1 = IMP-1 (Serratia marcescens, UniProt P52699); assay: as above; type: biochemical; settings: IMP-1 enzyme 2 pM, CCF2-FA 1.25 μM, 2 hours at 25° C.; read-out: IMP1 IC50
Chain of IMP-1 (P52699 19-246, looked up, species assumed): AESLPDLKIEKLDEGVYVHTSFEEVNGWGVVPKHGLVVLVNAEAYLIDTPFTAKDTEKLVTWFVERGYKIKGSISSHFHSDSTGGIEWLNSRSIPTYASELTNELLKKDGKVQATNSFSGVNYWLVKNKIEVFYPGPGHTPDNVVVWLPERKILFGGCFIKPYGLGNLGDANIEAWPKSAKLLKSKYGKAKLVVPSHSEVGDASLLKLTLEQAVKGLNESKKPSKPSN
Summary of the method: as §1

NDM-1 = NDM-1 (Klebsiella pneumoniae, UniProt C7C422); assay: as above; type: biochemical; settings: NDM-1 enzyme 1 pM, CCF2-FA 1.25 μM, 2 hours at 25° C.; read-out: NDM1 IC50
Chain of NDM-1 (C7C422 29-270, looked up, species assumed): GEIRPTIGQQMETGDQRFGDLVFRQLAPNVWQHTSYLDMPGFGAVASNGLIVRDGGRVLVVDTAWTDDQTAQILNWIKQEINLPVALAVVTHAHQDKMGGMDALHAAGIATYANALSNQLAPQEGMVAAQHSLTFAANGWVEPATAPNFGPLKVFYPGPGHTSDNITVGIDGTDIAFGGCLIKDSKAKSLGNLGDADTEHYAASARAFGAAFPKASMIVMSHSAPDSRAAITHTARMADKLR
Summary of the method: as §1

[1] = system: Escherichia coli expressing NDM-1 (CLB30016); assay: Antibiotic potentiation activity: synergistic concentration (MITC95) with imipenem, growth by OD600; type: cell-based; settings: E. coli CLB30016 (NDM-1), 95% inhibition of growth
Summary of the method: (§2)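 Colonies from overnight agar plates (35 °C) were suspended in saline and diluted 1:100 into 1.1× CAMHB. Inhibitor (final 200 μM to 0.195 μM) was combined with imipenem at 1 or 4 μg/ml, incubated 22–24 h at 35 °C, and absorbance read; MITC95 is the lowest inhibitor concentration giving 95% growth inhibition.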

[2] = system: Serratia marcescens expressing IMP-1 (CL5741); assay: as above; type: cell-based; settings: S. marcescens CL5741 (IMP-1), 95% inhibition of growth
Summary of the method: as §2

[3] = system: Klebsiella pneumoniae expressing VIM-1 (IHMA599644); assay: as above; type: cell-based; settings: K. pneumoniae IHMA599644 (VIM-1), 95% inhibition of growth
Summary of the method: as §2

SMILES | IC50 (VIM-1) [nM] | IC50 (IMP-1) [nM] | IC50 (NDM-1) [nM] | NDM1 EC30016 MITC95 [1] [µM] | IMP1 SM5741 MITC95 [2] [µM] | VIM1 KP599644 MITC95 [3] [µM]
CCC[C@H](C(=O)O)[C@H](Cc1cccc(N2CC[C@@H](N)C2)c1)c1nn[nH]n1 [Example 364, (2S)-2-[(1S)-2-{3-[(3R)-3-aminopyrrolidin-1-yl]phenyl}-1-(2H-tetrazol-5-yl)ethyl]pentanoic acid] | 2.4 | 1600 | 110 | 9.4 | 38 | 12.5
CCC[C@H](C(=O)O)[C@H](Cc1cccc(N2CCOCC2)c1)c1nn[nH]n1 [Example 365, (2S)-2-[(1S)-2-(3-morpholin-4-ylphenyl)-1-(2H-tetrazol-5-yl)ethyl]pentanoic acid] | 20 | 1500 | 82 | 38 | 38 | 50
CCC[C@H](C(=O)O)[C@H](Cc1cccc(N2CCC[C@H](N)C2)c1)c1nn[nH]n1 [Example 366, (2S)-2-[(1S)-2-{3-[(3S)-3-aminopiperidin-1-yl]phenyl}-1-(2H-tetrazol-5-yl)ethyl]pentanoic acid] | 13 | 8600 | 870 | 50 | 150 | 25
CCC[C@H](C(=O)O)[C@H](Cc1cccc(N2CCNC(=O)C2)c1)c1nn[nH]n1 [Example 367, (2S)-2-[(1S)-2-[3-(3-oxopiperazin-1-yl)phenyl]-1-(2H-tetrazol-5-yl)ethyl]pentanoic acid] | 260 | > 20000 | 1400 | >200 | >200 | >200
CCC[C@H](C(=O)O)[C@H](Cc1cccc(N2CCCCC2)c1)c1nn[nH]n1 [Example 368, (2S)-2-[(1S)-2-(3-piperidin-1-ylphenyl)-1-(2H-tetrazol-5-yl)ethyl]pentanoic acid] | 9.7 | 740 | 46 | 25 | 37.5 | 50
CCC[C@H](C(=O)O)[C@H](Cc1cccc(N2CC[C@H](N)C2)c1)c1nn[nH]n1 [Example 369, (2S)-2-[(1S)-2-{3-[(3S)-3-aminopyrrolidin-1-yl]phenyl}-1-(2H-tetrazol-5-yl)ethyl]pentanoic acid] | 3.2 | 2300 | 150 | 12.5 | 50 | 12.5
CCC[C@H](C(=O)O)[C@H](Cc1cccc(N2CCC[C@@H](N)C2)c1)c1nn[nH]n1 [Example 370, (2S)-2-[(1S)-2-{3-[(3R)-3-aminopiperidin-1-yl]phenyl}-1-(2H-tetrazol-5-yl)ethyl]pentanoic acid] | 6.3 | 9000 | 870 | 44 | 175 | 41
CC(C)C[C@H](C(=O)O)[C@H](Cc1ccc(Oc2ccccc2C2CCCN2)nc1)c1nn[nH]n1 (stereo partly drawn) [Example 374, (2S)-4-methyl-2-[(1S)-2-[6-(2-pyrrolidin-2-ylphenoxy)pyridin-3-yl]-1-(2H-tetrazol-5-yl)ethyl]pentanoic acid] | 3 | 90 | 12 | 9.4 | 9.4 | 62
CC(C)C[C@H](C(=O)O)[C@H](Cc1ccc(Oc2ccccc2C2CCCN2)nc1)c1nn[nH]n1 (stereo partly drawn) [Example 376, (2S)-4-methyl-2-[(1S)-2-[6-(2-pyrrolidin-2-ylphenoxy)pyridin-3-yl]-1-(2H-tetrazol-5-yl)ethyl]pentanoic acid] | 4.6 | 660 | 77 | 25 | 25 | 50
CC(C)C[C@H](C(=O)O)[C@H](Cc1ccc(Oc2ccnc(N3CCNCC3)c2)nc1)c1nn[nH]n1 [Example 379, (2S)-4-methyl-2-[(1S)-2-{6-[(2-piperazin-1-ylpyridin-4-yl)oxy]pyridin-3-yl}-1-(2H-tetrazol-5-yl)ethyl]pentanoic acid] | 7.1 | 370 | 32 | 9.4 | 16 | 100
CC(C)C[C@H](C(=O)O)[C@H](Cc1ccc(Oc2ccc(C(C)N)nc2)nc1)c1nn[nH]n1 (stereo partly drawn) [Example 380, (2S)-2-[(1S)-2-(6-{[6-(1-aminoethyl)pyridin-3-yl]oxy}pyridin-3-yl)-1-(2H-tetrazol-5-yl)ethyl]-4-methylpentanoic acid] | 2.4 | 64 | 12 | 4.7 | 4.7 | 50
CC(C)C[C@H](C(=O)O)[C@H](Cc1ccc(Oc2ccccc2)nc1)c1nn[nH]n1 [Example 381, (2S)-4-methyl-2-[(1S)-2-(6-phenoxypyridin-3-yl)-1-(2H-tetrazol-5-yl)ethyl]pentanoic acid] | 4.1 | 86 | 24 | 9.4 | 4.7 | 75
CC(C)C[C@H](C(=O)O)[C@H](Cc1ccc(Oc2cccc(C3CCCNC3)c2)nc1)c1nn[nH]n1 (stereo partly drawn) [Example 382, (2S)-4-methyl-2-[(1S)-2-[6-(3-piperidin-3-ylphenoxy)pyridin-3-yl]-1-(2H-tetrazol-5-yl)ethyl]pentanoic acid] | 34 | 170 | 140 | 12.5 | 12.5 | 75
CC(C)C[C@H](C(=O)O)[C@H](Cc1ccc(Oc2ccc(CO)cc2)nc1)c1nn[nH]n1 [Example 383, (2S)-2-[(1S)-2-{6-[4-(hydroxymethyl)phenoxy]pyridin-3-yl}-1-(2H-tetrazol-5-yl)ethyl]-4-methylpentanoic acid] | 56 | 150 | 34 | 25 | 12.5 | 150
CC(C)C[C@H](C(=O)O)[C@H](Cc1ccc(Oc2ccc(CC(C)(C)N)cc2)nc1)c1nn[nH]n1 [Example 386, (2S)-2-[(1S)-2-{6-[4-(2-amino-2-methylpropyl)phenoxy]pyridin-3-yl}-1-(2H-tetrazol-5-yl)ethyl]-4-methylpentanoic acid] | 100 | 180 | 120 | 25 | 12.5 | >200
CC(C)C[C@H](C(=O)O)[C@H](Cc1ccc(Oc2cccc3c2CCNC3)nc1)c1nn[nH]n1 [Example 388, (2S)-4-methyl-2-[(1S)-2-[6-(1,2,3,4-tetrahydroisoquinolin-5-yloxy)pyridin-3-yl]-1-(2H-tetrazol-5-yl)ethyl]pentanoic acid] | 18 | 340 | 130 | 25 | 18.8 | 38
CC(C)C[C@H](C(=O)O)[C@H](Cc1ccc(Oc2cccc3c2CCCN3)nc1)c1nn[nH]n1 [Example 389, (2S)-4-methyl-2-[(1S)-2-[6-(1,2,3,4-tetrahydroquinolin-5-yloxy)pyridin-3-yl]-1-(2H-tetrazol-5-yl)ethyl]pentanoic acid] | 4.4 | 58 | 16 | 25 | 6.2 | 100
CC(C)C[C@H](C(=O)O)[C@H](Cc1ccc(Oc2ccc(CN)cc2)nc1)c1nn[nH]n1 [Example 390, (2S)-2-[(1S)-2-{6-[4-(aminomethyl)phenoxy]pyridin-3-yl}-1-(2H-tetrazol-5-yl)ethyl]-4-methylpentanoic acid] | 5.3 | 240 | 35 | 1.6 | 12.5 | 25
CC(C)C[C@H](C(=O)O)[C@H](Cc1ccc(Oc2ccccn2)nc1)c1nn[nH]n1 [Example 391, (2S)-4-methyl-2-[(1S)-2-[6-(pyridin-2-yloxy)pyridin-3-yl]-1-(2H-tetrazol-5-yl)ethyl]pentanoic acid] | 52 | 640 | 44 | 25 | 25 | 100
CCC[C@H](C(=O)O)[C@H](Cc1ccccc1-c1ccccc1)c1nn[nH]n1 [Example 393, (2S)-2-[(1S)-2-biphenyl-2-yl-1-(2H-tetrazol-5-yl)ethyl]pentanoic acid] | 4.5 | 1000 | 3.2 | 4.7 | 25 | 75
